According to publication PMC6651196, “Preclinical Evaluation of Radiolabeled Peptides for PET Imaging of Glioblastoma Multiforme” (Molecules, 2019):
Entries after “also recorded” stand apart in the source; their conditions may differ. Like-named read-outs stand apart in the source and are kept apart here.

Key:
U-87 MG tumor xenografts = experiment: µPET/CT imaging
Method: (§1) SCID female mice (Harlan, Indianapolis, IN, USA) at 6–8 weeks of age were subcutaneously injected into the right flank with 5 × 10^6 U-87 MG cells mixed with Matrigel Matrix (Corning, Corning, NY, USA) at a 1:1 ratio. The tumor growth was continuously monitored by caliperation. When the tumor volume reached 100–300 mm^3 (i.e., 6–8 weeks after inoculation of cells), the mice were used for ex vivo biodistribution studies or µPET/CT imaging. The experimental animals were housed in a specific-pathogen-free animal facility. […] The number of animals was reduced as much as possible (n = 3 per group and time point) for all in vivo experiments. The tracer injection and small animal imaging were carried out under 2% isoflurane anesthesia (FORANE, Abbott Laboratories, Abbott Park, IL, USA) to minimize animal suffering and to prevent animal motion.
(§2) Experimental animals were imaged using microPET/SPECT/CT system Albira (Bruker, Billerica, Massachusetts, USA). Mice were r.o. injected with the radiolabeled tracer at a dose of 5–10 MBq (corresponding to 1–2 μg of peptide for animals injected with ^68Ga-peptides) per animal. Anesthetized animals were placed in a prone position in the Albira system before the start of imaging. Static PET/CT images were acquired over 30 min interval starting 30 and 90 minutes after injection. A 10-min PET scan (axial FOV 148 mm) was performed, followed by a double CT scan (axial FOV 65 mm, 45 kVp, 400 μA, at 400 projections). Scans were reconstructed with the Albira software (Bruker Biospin Corporation, Woodbridge, CT, USA) using the maximum likelihood expectation maximization (MLEM) and filtered back-projection (FBP) algorithms. The PMOD software (PMOD Technologies, Zurich, Switzerland) was used for the image analysis and tracer uptake quantification. Three-dimensional volume rendered images were created in VolView software (Kitware, Clifton Park, NY, USA). The data obtained by PET scan were quantified in PMOD via manually selected volumes of interest (VOIs) and expressed as standardized uptake values (SUV). Using SUVs for the tumor and brain regions the tumor to brain ratios were calculated.

[1] = Stability in the presence of competing chelator (DTPA), HPLC radiochemical purity; settings: 37 °C
Method: 50 μL of ^68Ga-labeled peptides were mixed with 150 μL of 6 mM DTPA solution (Sigma Aldrich, St. Louis, MO, USA). The mixture was then incubated at 37 °C and the samples were processed for HPLC analysis to determine the radiochemical purity were taken at selected time points (30, 60, and 120 min) and directly injected on HPLC.

[2] = Plasma stability, HPLC radiochemical purity; settings: human
Method: (§3) 100 μL of the labeled peptide was mixed with 400 μL of human plasma (Sigma Aldrich, St. Louis, MO, USA). This mixture was incubated at 37 °C and the samples for HPLC analysis to determine the radiochemical purity were taken at selected time points (30, 60, and 120 min). The individual samples were adjusted before the injection on HPLC—every sample was mixed with acetonitrile (Roth, Karlsruhe, Germany) and placed on the shaker (450 rpm) for 60 s and then centrifuged (20,000 RCF, 3 min), followed by removing the supernatant. Finally, the supernatant was analyzed using HPLC.

U-87 MG cells = experiment: Cell uptake assay with and without excess of cold peptide; type: cell-based, human; settings: for Accumulation in U-87 MG cells: 90 min, 37 °C
Method: Human glioblastoma multiforme U-87 MG cells (ATCC, Manassas, VA, USA) were cultured in Dulbecco’s Modified Eagle Medium (Sigma Aldrich, St. Louis, MO, USA) supplemented with 10% fetal bovine serum, 0.1 mM non-essential amino acids and 1.0 mM sodium pyruvate at 37 °C in a 5% carbon dioxide humidified incubator. The cells were subcultured and used for experiments at a confluency of 70–90%.
Cell uptake assay was performed in 24-well plates with U-87 MG cell at high confluency. The assay itself was carried out using a dedicated buffer instead of the regular cell culture media. The buffer consists of 25 mM Tris/HCl, 5.4 mM KCl, 1.8 mM CaCl2, 0.8 mM MgSO4, 5 mM glucose, 140 mM NaCl in H2O [34].
The cells were incubated with ^68Ga-labeled RGD peptides (20 µM) alone and also with excess (2 mM) of cold RGD peptide for 90 min (37 °C) in the buffer described above. The cells were rinsed with PBS, lysed in 0.1 M NaOH and measured for radioactivity in a gamma counter (PerkinElmer, Waltham, Massachusetts, USA). The uptake was calculated as the mean of the percentage of the applied dose ± standard deviation.

[3] = Plasma protein binding, size-exclusion spin column; settings: human plasma, 37 °C
Method: (§4) 10 µL of the labeled peptide was mixed with 190 μL of human plasma (Sigma Aldrich, St. Louis, MO, USA), and incubated at 37 °C. Twenty-five µL of sample were collected at 30, 60, and 120 min time intervals for the determination of protein binding. The samples were separated by size-exclusion chromatography (illustra MicroSpin G-50 Column, GE Healthcare, UK) by centrifugation (2000 × g, 1 min). The eluate (protein-bound) and appropriate column (non-protein-bound) were measured on an automatic gamma counter. The percentage of plasma protein binding (PPB) was calculated as the ratio of the activity in the eluate and the activity of the whole sample (column plus the eluate). The blank determination of protein binding, i.e., incubation of the radiotracer in PBS buffer followed by separation of the sample on gel column was performed as the control step.

[4] = Partition coefficient (log P), octanol/PBS
Method: Labeled peptide was diluted with 600 μL of phosphate-buffered saline (PBS), and 50 µL of the solution was mixed in the test tube with 450 μL of PBS and 500 μL of octanol. The sample was placed on the shaker (1000 RPM) for 20 min and then centrifuged at 15,000 RPM for 1 min. Subsequently, 50 µL from both octanol and water layer were collected and measured on an automatic gamma counter (PerkinElmer, Waltham, Massachusetts, USA). Partition coefficient was calculated as the decadic logarithm of the ratio of octanol/water activity.

[5] = Stability in physiological pH (pH 7), HPLC radiochemical purity; settings: 37 °C
Method: The peptides were labeled as described above. Subsequently, 100 μL of 1.14 M sodium acetate was added to adjust the pH to 7.0. The mixture was incubated at 37 °C and the samples for HPLC analysis to determine the radiochemical purity were taken at selected time points (30, 60, and 120 min) and directly injected on HPLC.

[6] = Stability in the presence of competing metal (FeCl3), HPLC radiochemical purity; settings: 37 °C
Method: 50 μL of ^68Ga-labeled peptides were mixed with 150 μL of 0.1 mM FeCl3 (Sigma Aldrich, St. Louis, MO, USA). The mixture was incubated at 37 °C and the samples for HPLC analysis to determine the radiochemical purity were taken at selected time points (30, 60 and 120 min) and directly injected on HPLC.

Ex vivo biodistribution = settings: mouse; for tissue to tissue ratio at 0.5 h / tissue to tissue ratio at 1.5 h: female, SCID, total radioactivity, from ex vivo biodistribution; for tissue to tissue ratio at 1.5 h: 90 min p.i.
Method: (§5) SCID female mice (Harlan, Indianapolis, IN, USA) at 6–8 weeks of age were subcutaneously injected into the right flank with 5 × 10^6 U-87 MG cells mixed with Matrigel Matrix (Corning, Corning, NY, USA) at a 1:1 ratio. The tumor growth was continuously monitored by caliperation. When the tumor volume reached 100–300 mm^3 (i.e., 6–8 weeks after inoculation of cells), the mice were used for ex vivo biodistribution studies or µPET/CT imaging. […] The number of animals was reduced as much as possible (n = 3 per group and time point) for all in vivo experiments. The tracer injection and small animal imaging were carried out under 2% isoflurane anesthesia (FORANE, Abbott Laboratories, Abbott Park, IL, USA) to minimize animal suffering and to prevent animal motion.
(§6) For ex vivo biodistribution studies, radiolabeled tracers were diluted with saline. The prepared solutions were applied retro-orbitally (r.o.) to the mice [35] at a dose of 1–2 MBq per mouse corresponding to 0.2–0.4 µg of the peptide. The mice were sacrificed by cervical dislocation 30 min and 90 min post-injection and organs of interest (blood, spleen, pancreas, stomach, intestine, kidneys, liver, heart, lungs, muscle, bone, and tumor) were collected. The samples were weighed and the radioactivity was measured by an automatic gamma counter. The accumulation of radiotracer in studied organs was expressed as a percentage of injected dose per gram of organ.

µPET/CT imaging = settings: female, SCID, mouse, tumor and brain (PET volumes of interest), total radioactivity
Method: as §1, §2

[7] = human, plasma
Method: as §4

in vitro = settings: human, plasma
Method: as §3

[8] = mouse, in vivo
Method: as §5, §6

in vivo [9] = settings: female, SCID, mouse, total radioactivity
Method: as §5, §6

U-87 MG tumor SCID mouse [10] = settings: in vivo
Method: as §5, §6

in vivo [11] = settings: female, SCID, mouse, total radioactivity; remark: listed apart in the source
Method: as §1, §2

U-87 MG tumor SCID mouse [12] = experiment: Ex vivo biodistribution; settings: 90 min p.i., from ex vivo biodistribution
Method: as §5, §6

[13] = tumor and blood, Tumor to blood ratio, 30 min p.i.
[14] = tumor and blood, Tumor to blood ratio
[15] = tumor and kidney, Tumor to kidney ratio, 30 min p.i.
[16] = tumor and kidney, Tumor to kidney ratio
[17] = tumor and muscle, Tumor to muscle ratio, 30 min p.i.
[18] = tumor and muscle, Tumor to muscle ratio

% Stability in 6 mM DTPA ([1]; 60 min)	% Stability in 6 mM DTPA ([1]; 120 min)	remaining at 0.5 h [2]	remaining at 1 h [2]	remaining at 2 h [2]	Plasma Protein Binding (%) ([3]; incubation 30 min)	Plasma Protein Binding (%) ([3]; incubation 60 min)	Plasma Protein Binding (%) ([3]; incubation 120 min)	logP [4]	% Stability in pH 7 ([5]; 30 min)	% Stability in pH 7 ([5]; 60 min)	% Stability in pH 7 ([5]; 120 min)	% Stability in 0.1 M FeCl3 ([6]; 30 min)	% Stability in 0.1 M FeCl3 ([6]; 60 min)	% Stability in 0.1 M FeCl3 ([6]; 120 min)	tissue to tissue ratio at 0.5 h (Ex vivo biodistribution; [13])	tissue to tissue ratio at 1.5 h (Ex vivo biodistribution; [14])	tissue to tissue ratio at 0.5 h (Ex vivo biodistribution; [15])	tissue to tissue ratio at 1.5 h (Ex vivo biodistribution; [16])	SMILES	Accumulation in U-87 MG cells (U-87 MG cells; normal cells, 20 µM)	further results
–	–	–	–	–	–	–	–	–	–	–	–	–	–	–	–	–	–	–	OC[C@H]1OC(O)[C@H](F)[C@@H](O)[C@@H]1O (stereo partly drawn) [^18F-FDG, ^18F-fluorodeoxyglucose, reference compound]	–	PET/CT visualization of the tumor (U-87 MG tumor xenografts; mouse, in vivo): allowed clear imaging of the tumor
–	–	–	–	–	–	–	–	–	–	–	–	–	–	–	–	–	–	–	Cc1cn([C@H]2C[C@H]([18F])[C@@H](CO)O2)c(=O)[nH]c1=O [^18F-FLT, ^18F-fluorothymidine, reference compound]	–	PET/CT visualization of the tumor (U-87 MG tumor xenografts; 30 and 90 min p.i.): could also be imaged
99.39 ± 0.54%	99.06 ± 0.57%	99.23 ± 0.18%	99.14 ± 0.19%	98.81 ± 0.33%	2.39%	2.65%	3.29%	-3.43 ± 0.11	99.60 ± 0.23%	99.51 ± 0.13%	99.49 ± 0.20%	97.04 ± 1.24%	96.76 ± 1.21%	95.83 ± 1.04%	1.09	14.7	0.29	1.43	N=C(N)NCCC[C@@H]1NC(=O)[C@H](CCCCNC(=O)CN2CCN(CC(=O)O)CCN(CC(=O)O)CCN(CC(=O)O)CC2)NC(=O)[C@@H](Cc2ccccc2)NC(=O)[C@H](CC(=O)O)NC(=O)CNC1=O [^68Ga-DOTA-c(RGDfK), DOTA-c(RGDfK), metal not drawn]	lowest	% Stability in 6 mM DTPA ([1]; 30 min): 99.39 ± 0.43%; Uptake in U-87 cells compared to ^68Ga-NODAGA-c(RGDyK)2 (U-87 MG cells; normal cells): about 50%; tissue to tissue ratio at 0.5 h (Ex vivo biodistribution; [17]): 2.42; tissue to tissue ratio at 1.5 h (Ex vivo biodistribution; [18]): 13.5; tissue to tissue ratio at 1.5 h (µPET/CT imaging): 4.7
–	–	–	–	–	–	–	–	–	–	–	–	–	–	–	–	–	–	–	CSCC[C@H](NC(=O)[C@H](CC(C)C)NC(=O)CNC(=O)[C@H](Cc1ccccc1)NC(=O)[C@H](Cc1ccccc1)NC(=O)[C@H](CCC(N)=O)NC(=O)[C@H](CCC(N)=O)NC(=O)[C@@H]1CCCN1C(=O)[C@H](CCCCN)NC(=O)[C@@H]1CCCN1C(=O)[C@H](CCCNC(=N)N)NC(=O)CN1CCN(CC(=O)O)CCN(CC(=O)O)CCN(CC(=O)O)CC1)C(N)=O [^68Ga-DOTA-substance P, DOTA-substance P, metal not drawn]	0.3 % of the applied dose	Accumulation in U-87 MG cells (U-87 MG cells; blocked with excess (2 mM) of cold peptide): 0.3 % of the applied dose; Uptake in U-87 cells compared to ^68Ga-NODAGA-c(RGDyK)2 (U-87 MG cells; normal cells): about 50%; fraction unbound [7]: ~0.71; remaining at 0.5 h (in vitro): 98.2%; remaining at 1 h (in vitro): 98.2%; remaining at 2 h (in vitro): 98%; tissue uptake at 1.5 h ([8]; Accumulation in kidneys): 15 to 17 %ID/g; tissue uptake at 0.5 h ([8]; Tumor uptake): 2.14 %ID/g; tissue to tissue ratio at 0.5 h (in vivo [9]; Tumor to blood ratio): 0.93; tissue to tissue ratio at 1.5 h (in vivo [9]; Tumor to blood ratio): 2.84; tissue to tissue ratio at 0.5 h (in vivo [9]; Tumor to kidney ratio): 0.14; tissue to tissue ratio at 1.5 h (in vivo [9]; Tumor to kidney ratio): 0.04; tissue to tissue ratio at 0.5 h (in vivo [9]; Tumor to muscle ratio): 3.1; tissue to tissue ratio at 1.5 h (in vivo [9]; Tumor to muscle ratio): 6.45; Tumor to blood ratio (U-87 MG tumor SCID mouse [10]): 2.8; Accumulation in kidneys (U-87 MG tumor SCID mouse [10]; 1.5 h): 15 % ID/g; logP: -3.03 ± 0.33; PET/CT visualization of the tumor (U-87 MG tumor xenografts; 30 and 90 min p.i., listed as 68Ga-substance P): did not visualize the tumor; also recorded: did not observe any substantial signal in tumors; tissue to tissue ratio at 1.5 h (in vivo [11]): 4.25
99.39 ± 0.54%	99.06 ± 0.57%	99.51 ± 0.17%	99.31 ± 0.11%	99.02 ± 0.33%	1.74%	1.89%	3.40%	-3.34 ± 0.13	99.83 ± 0.11%	99.74 ± 0.18%	99.62 ± 0.21%	98.66 ± 0.82%	99.22 ± 0.19%	99.17 ± 0.18%	2.3	16.4	0.61	0.91	N=C(N)NCCC[C@@H]1NC(=O)[C@H](CCCCNC(=O)CC[C@H](NC(=O)CCC(C(=O)O)N2CCN(CC(=O)O)CCN(CC(=O)O)CC2)C(=O)NCCCC[C@@H]2NC(=O)[C@@H](Cc3ccc(O)cc3)NC(=O)[C@H](CC(=O)O)NC(=O)CNC(=O)[C@H](CCCNC(=N)N)NC2=O)NC(=O)[C@@H](Cc2ccc(O)cc2)NC(=O)[C@H](CC(=O)O)NC(=O)CNC1=O (stereo partly drawn) [^68Ga-NODAGA-c(RGDyK)2, NODAGA-c(RGDyK)2, metal not drawn]	highest accumulation; also recorded: highest binding	tissue to tissue ratio at 0.5 h (Ex vivo biodistribution; [17]): 5.84; tissue to tissue ratio at 1.5 h (Ex vivo biodistribution; [18]): 10.5; tissue uptake at 0.5 h (Ex vivo biodistribution; tumor, Tumor uptake, 30 min p.i.): 6 %ID/g; tissue to tissue ratio at 1.5 h (µPET/CT imaging): 4.14; PET/CT visualization of the tumor (U-87 MG tumor xenografts; 30 and 90 min p.i.): highest accumulation of radioactivity; also recorded: best tumor images
99.20 ± 0.37%	99.23 ± 0.32%	99.23 ± 0.18%	99.14 ± 0.19%	98.81 ± 0.33%	2.74%	1.31%	3.21%	-3.05 ± 0.62	99.82 ± 0.05%	99.78 ± 0.12%	99.72 ± 0.22%	99.24 ± 0.44%	98.56 ± 0.60%	98.94 ± 0.42%	1.9	23.1	0.36	0.9	N=C(N)NCCC[C@@H]1NC(=O)[C@H](CCCCNC(=O)CCC(C(=O)O)N2CCN(CC(=O)O)CCN(CC(=O)O)CC2)NC(=O)[C@@H](Cc2ccc(O)cc2)NC(=O)[C@H](CC(=O)O)NC(=O)CNC1=O (stereo partly drawn) [^68Ga-NODAGA-c(RGDyK), NODAGA-c(RGDyK), metal not drawn]	–	% Stability in 6 mM DTPA ([1]; 30 min): 99.65 ± 0.07%; tissue to tissue ratio at 0.5 h (Ex vivo biodistribution; [17]): 3.23; tissue to tissue ratio at 1.5 h (Ex vivo biodistribution; [18]): 6.51; Tumor to blood ratio (U-87 MG tumor SCID mouse [12]): 23.1; tissue to tissue ratio at 1.5 h (µPET/CT imaging): 4
